US9169315B2, “Heparin cofactor II fragments with anti-inflammatory and anti-coagulant activity” (XIMMUNE AB, priority 2009, dated 2015)
No end group written: not given here.

Key:
[1] = test system: E. coli 0111:B4 LPS; assay: LPS model in vivo (E. coli LPS-induced shock); set-up: species or system C57BL/6 mice; conditions: for Platelet counts / IFN-γ in blood / IL-10 in blood / IL-6 in blood / MCP-1 in blood / TNF-α in blood: 0.5 mg peptide; for Platelet counts: 8 and 20 h after LPS; for IFN-γ in blood / IL-6 in blood / MCP-1 in blood / TNF-α in blood: 8 and 20 h after LPS injection; for IL-10 in blood: 8 or 20 h after LPS injection; for Survival: 18 mg/kg E. coli LPS i.p., peptide i.p., followed 7 days; for Weight: followed for 7 days
Procedure: Septic shock in C57BL6 mice was induced by intraperitoneal injection of 18 mg/kg E. coli LPS. Sixty minutes later KYE28 and KYE21 (0.2 and 0.5 mg; in PBS) or buffer only was administered. […] (C) Peptide treatment affects the number of platelets in the LPS-induced shock model. (D) In separate experiments mice were injected with LPS followed by administration of 0.5 mg of KYE28 or KYE21, or buffer. Animals were sacrificed at 8 h, 20 h, or after 7 days and the number of platelets in blood counted using the VetScanSystem. […] Cytokines were measured in blood from animals sacrificed at 8 or 20 h after LPS injection. […] C57BL6 were i.p. injected with […] LPS followed by 0.5 mg of KYE28 After 20 h mice were sacrificed and cytokine levels in blood were determined. (KYE28; n=10). All data are representative of two independent experiment.
RAW 264.7 macrophages were stimulated with 10 ng/ml E. coli or P. aeruginosa LPS in combination with indicated concentrations NLF20. […] Clotting times were determined without (control) or with 20 μM of the peptide. Activated partial thromboplastin time (aPTT) was measured by incubating the peptides at the indicated concentrations in citrated human plasma for 1 minute followed by the addition of 100 μl aPTT reagent (aPTT Automate, Diagnostica Stago) for 60 seconds at 37° C. Clotting was initiated by the addition of CaCl2 solution. Results illustrating the prothombin time assay (PT) and thrombin clotting time (TCT) are also presented. (C) Septic shock in C57BL6 mice was induced by intraperitoneal injection of 18 mg/kg E. coli LPS. NLF20 (0.2 or 0.5 mg in 10 mM Tris, pH 7.4) or buffer only was administered. […] (E) Weight was followed for 7 days. […] In separate experiments mice were injected with LPS followed by administration of 0.5 mg of NLF20, or buffer. Animals were sacrificed at 8 h, 20 h, and survivors after 7 days and the number of platelets in blood counted using the VetScanSystem. (F) Administration of NLF20 (0.5 mg) selectively modulates the cytokine response compared to control mice. Cytokines were measured in blood from animals sacrificed at 8 or 20 h after LPS injection. (G) NLF abrogates inflammation in lungs. Lungs were analyzed by light microscopy after staining with hematoxylin-eosin, or analyzed by scanning electron microscopy 20 h after LPS injection i.p., followed by treatment with NLF20 (0.5 mg) or buffer.
(§1) Male C57BL/6 mice (8-10 weeks, 22+/−5 g), were injected intraperitoneally with 18 mg E. coli 0111:B4 LPS (Sigma) per kg of body weight. Thirty minutes after LPS injection, 0.5 mg KYE28, KYE21 or buffer alone was injected intraperitoneally into the mice. Survival and status was followed during seven days. For blood collection and histochemistry, mice were sacrificed 20 h after LPS challenge, and lungs were removed and fixed. These experiments were approved by the Laboratory Animal Ethics Committee of Malmö/Lund.
as §1, with “NLF20” for “KYE28, KYE21”

[2] = test system: RAW 264.7 macrophages; assay: NO production of stimulated macrophages (Griess reaction); type: cell-based, mouse; conditions: for NO production: stimulated with E. coli LPS, LTA, PGN, zymosan A; for NO-release of LPS-stimulated macrophages: E. coli or P. aeruginosa LPS, 10 ng/ml
Procedure: (§2) 3.5×10^5 cells were seeded in 96-well tissue culture plates (Nunc, 167008) in phenol red-free DMEM (Gibco) supplemented with 10% FBS and antibiotics. Following 6 hours of incubation to permit adherence, cells were stimulated with 10 ng/mL E. coli (0111:84) LPS (Sigma), lipoteichoic acid, peptioglycan, or zymosan, with and without peptides at the indicated doses (see figure legends and figures). The levels of NO in culture supernatants were determined after 24 hours from stimulation using the Griess reaction. Briefly, nitrite, a stable product of NO degradation, was measured by mixing 50 μl of culture supernatants with the same volume of Griess reagent (Sigma, G4410) and reading absorbance at 550 nm after 15 min. Phenol-red free DMEM with FBS and antibiotics were used as a blank. A standard curve was prepared using 0-80 μM sodium nitrite solutions in ddH20.
as §2, with “coli” for “coli (0111:84)”, “(0111:B4)” for “(Sigma), lipoteichoic acid, peptioglycan, or zymosan,”, “peptide of various doses.” for “peptides at the indicated doses (see figure legends and figures).”, “reaction (Pollock, Forstermann et al. 1991).” for “reaction.”

Sequence	Platelet counts [1]	IFN-γ in blood [1]	IL-10 in blood [1]	Survival [1]	Weight [1]	Concentration eliminating LPS-induced NO-responses ([2]; 10 ng/ml E. coli or P. aeruginosa LPS) [µM]	NO production [2]	IL-6 in blood [1]	MCP-1 in blood [1]	TNF-α in blood [1]	NO-release of LPS-stimulated macrophages [2]
NLFRKLTHRLFRRNFGYTLR [NLF20]	significantly increased platelets	significant reductions	an increase in IL-10 was observed after 8 h and 20 h	dramatic improvement on survival	full recovery of weight	20 to 40	blocks NO production	–	–	–	–
KYEITTIHNLFRKLTHRLFRRNFGYTLR [KYE28]	increased platelet levels after 20 h	significant reductions	an increase in IL-10 was observed after 8 h	dramatic improvement on survival	full recovery of weight	–	blocks NO production	significant reductions	significant reductions	significant reductions	significantly inhibited NO-release
KYEITTIHNLFRKLTHRLFRR [KYE21]	–	significant reductions	an increase in IL-10 was observed after 8 h	dramatic improvement on survival	full recovery of weight	–	blocks NO production	significant reductions	significant reductions	significant reductions	significantly inhibited NO-release
